Literature values, collected in US7169982B2, “Starch” (Basf Plant Science GmbH, priority 2001, dated 2007).
Like-named read-outs stand apart in the source and are kept apart here.

How the values were obtained:
[1] = system: maize starch synthase SSIIb-2 (N-terminally truncated form of mSSIIb produced in E. coli), non-mutant, SEQ ID NO:7; conditions: read-out: Km (ADPGlc)
[2] = system: maize starch synthase SSIIb-2 (SEQ ID NO:7) mutant D139E; conditions: read-out: Km (ADPGlc)
[3] = system: maize starch synthase SSIIb-2 (SEQ ID NO:7) mutant E391D; conditions: read-out: Km (ADPGlc)
[4] = system: maize starch synthase SSIIa (SEQ ID NO:8) mutant K193Q; conditions: for Km: read-out: Km for ADPG
[5] = system: maize starch synthase SSIIa (SEQ ID NO:8) mutant K193E; conditions: for Km: read-out: Km for ADPG
[6] = system: maize starch synthase SSIIa, wild-type, SEQ ID NO:8; conditions: for Km: read-out: Km for ADPG
[7] = system: maize starch synthase SSIIa (SEQ ID NO:8) mutant K497Q; conditions: for Km: read-out: Km for ADPG
[8] = system: maize starch synthase SSIIb-2 (SEQ ID NO:7) mutant D21N; conditions: read-out: Km (ADPGlc)
[9] = system: maize starch synthase SSIIb-2 (SEQ ID NO:7) mutant D21E; conditions: amylopectin as primer, 5 mg/ml; read-out: Km (ADPGlc)
[10] = system: maize starch synthase SSIIa (SEQ ID NO:8) mutant K193R; conditions: for Km: read-out: Km for ADPG

Nc1ncnc2c1ncn2[C@@H]1O[C@H](COP(=O)(O)OP(=O)(O)O[C@H]2O[C@H](CO)[C@@H](O)[C@H](O)[C@H]2O)[C@@H](O)[C@H]1O [ADPGlc, ADP-glucose]
Km ([1]; amylopectin as primer, 5 mg/ml): 160 ± 30 µM | Km ([1]; glycogen as primer, 20 mg/ml): 130 ± 20 µM | Km ([2]; amylopectin as primer, 5 mg/ml): 90 ± 30 µM | Km ([2]; glycogen as primer, 20 mg/ml): 70 ± 20 µM | Km ([3]; amylopectin as primer, 5 mg/ml): 1370 ± 140 µM | Km ([3]; glycogen as primer, 20 mg/ml): 1180 ± 140 µM | Vmax ([4]; amylopectin as primer): 17.4 ± 1.58 μmol/min/mg protein | Km ([4]; amylopectin as primer): 130 ± 10 µM | Vmax ([4]; glycogen as primer): 6.20 ± 0.01 μmol/min/mg protein | Km ([4]; glycogen as primer): 100 ± 10 µM | Vmax ([5]; amylopectin as primer): 10.53 ± 0.5 μmol/min/mg protein | Km ([5]; amylopectin as primer): 220 ± 10 µM | Vmax ([5]; glycogen as primer): 25.45 ± 0.08 μmol/min/mg protein | Km ([5]; glycogen as primer): 170 ± 20 µM | Vmax ([6]; amylopectin as primer): 49.9 ± 4.06 μmol/min/mg protein | Km ([6]; amylopectin as primer): 110 ± 10 µM | Vmax ([6]; glycogen as primer): 34.47 ± 1.70 μmol/min/mg protein | Km ([6]; glycogen as primer): 120 ± 10 µM | Vmax ([7]; amylopectin as primer): 13.5 ± 0.21 μmol/min/mg protein | Km ([7]; amylopectin as primer): 5620 ± 230 µM | Vmax ([7]; glycogen as primer): 23.8 ± 2.5 μmol/min/mg protein | Km ([7]; glycogen as primer): 6910 ± 330 µM | Km ([8]; amylopectin as primer, 5 mg/ml): 1580 ± 110 µM | Km ([8]; glycogen as primer, 20 mg/ml): 1480 ± 30 µM | Km [9]: 130 ± 30 µM | Vmax ([10]; amylopectin as primer): 18.2 ± 0.91 μmol/min/mg protein | Km ([10]; amylopectin as primer): 150 ± 10 µM | Vmax ([10]; glycogen as primer): 42.27 ± 3.01 μmol/min/mg protein | Km ([10]; glycogen as primer): 150 ± 20 µM
